In PMC9072872, “Structure-based design of nucleoside-derived analogues as sulfotransferase inhibitors” (RSC Advances, 2019):

Key:
TPST1 [1] = target: T1, TPST1 (Homo sapiens, UniProt O60507); assay: Immunoblot of GST-CC4tide tyrosine sulfation by TPST1 (anti-sulfotyrosine antibody); assay type: biochemical; conditions: compound 400 μM, GST-CC4-tide 1 μg, TPST1 0.2 μg, PAPS 5 μM, 15 min
T1 construct: Human TPST1 (residues Lys43-Leu360) enzyme was purified as a recombinant protein; made in house
T1 sequence (O60507 43-360): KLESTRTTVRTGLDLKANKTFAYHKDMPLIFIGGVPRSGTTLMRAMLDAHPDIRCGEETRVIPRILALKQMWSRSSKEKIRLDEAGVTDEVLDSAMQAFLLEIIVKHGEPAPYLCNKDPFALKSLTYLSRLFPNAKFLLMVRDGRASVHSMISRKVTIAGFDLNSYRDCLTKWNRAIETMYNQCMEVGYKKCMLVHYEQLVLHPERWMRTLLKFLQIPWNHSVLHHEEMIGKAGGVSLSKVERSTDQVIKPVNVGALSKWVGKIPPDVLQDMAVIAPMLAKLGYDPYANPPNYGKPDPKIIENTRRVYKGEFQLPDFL
Procedure: In order to further assess TPST1 inhibition by 2′-deoxy-PAP and compounds 1–14 using a complementary assay, immunoblotting of a TPST1 protein substrate (GST-CC4tide) was implemented with a monoclonal antibody that specifically recognises sulfotyrosine, using PAP as positive control (Fig. 5A). Compounds were screened at 400 μM in the assay. In common with the […] enzyme assay using a synthetic peptide, a broad range of inhibitory activities was observed.
Fig. 5 Immunological evaluation of TPST1 inhibition towards substrate and a Ser/Thr protein kinase counter-screen. (A) Immunoblots evaluating TPST1 sulfotransferase activity in the presence of a panel of PAP- and PAPS-mimetic compounds. […] After termination of the reaction using SDS-PAGE sample buffer, tyrosine sulfation was visualised by immunoblotting using a monoclonal sulfotyrosine antibody (top panel), with equal GST-CC4-tide and TPST1 loading confirmed using an antibody to detect 6xHis tagged proteins (bottom panel). (B) Enzymatic inhibition of PKA catalytic activity by a panel of PAP- and PAPS-mimetic compounds. PKA kinase (1 nM) was incubated with ATP (5 μM) in the presence of the appropriate nucleoside analogue (400 μM) for 30 min at 20 °C. PKA activity was calculated in real-time using fluorescently-labelled substrate peptide (2 μM) and normalised to DMSO (4% v/v) or buffer control.[77] Data in B is mean and SD of 3 individual experiments. Staurosporine is included at 40 μM as a generic inhibitor of kinase activity. […]
All standard laboratory biochemicals, were purchased from Sigma, and were of the highest analytical quality.
(§1) 5'-phosphosulfate, lithium salt hydrate, PAP (adenosine 3',5'-diphosphate, disodium salt), CoA (coenzymeA, sodium salt), ATP (adenosine 5’-triphosphate, disodium salt hydrate) were all purchased from Sigma and stored at -80 °C to minimise degradation.
(§2) Recombinant Protein Production and SDS-PAGE
(§3) Human TPST1 (residues Lys43-Leu360) enzyme was purified as a recombinant protein containing an N-terminal 6xHis tag as previously described. […]
pMAL-c2x plasmid encoding an N-terminal Maltose Binding Protein (MBP) affinity tag.6 Glutathione-S-transferase (GST) tagged CC4-tide ([…]) was cloned into pOPINJ (OPPF-UK) and […]
affinity purified from BL21 (DE3) pLysS E. coli using Glutathione-Sepharose 4B (GE Healthcare). 5 For SDS-PAGE, proteins were denatured in Laemmli sample buffer, heated at 95 °C for 5 min and then analysed by SDS-PAGE with 10% (v/v) polyacrylamide gels. Gels were stained and de-stained using a standard Coomassie Brilliant Blue protocol. To evaluate protein sulfation by immunoblotting, standard western blotting procedures were followed using monoclonal anti-sulfotyrosine ant ibody clone o-1C-A2 (Millipore) generated using a phage display procedure and sulfotyrosine selection peptide antigens7 in the presence of appropriate positive and negative controls, and modifications visua lised using ECL […]
Data was normalized […]
with respect to these control assays, with sulfate incorporation into the substr ate limited to ~ 20% to prevent depletion of PAPS and to ensure assay linearity. K m and IC50 values were determined by non-linear regression analysis with GraphPad Prism software. […]

TPST1 [2] = target: T1, TPST1; assay: Microfluidic mobility shift sulfation assay, TPST1 (fluorescent CC4-tide substrate); assay type: biochemical; conditions: for IC50: read-out: IC50 against TPST1
Procedure: Compounds were initially screened at 400 μM in the presence 20 nM HS2ST and 0.1 μM TPST1 respectively.
Fig. 4 Summary of enzymatic inhibition assays against HS2ST and TPST1. (A) Enzymatic analysis of HS2ST1 inhibition by a panel of PAP- and PAPS-mimetic compounds. […] HS2ST sulfotransferase activity was assayed using a fluorescent hexasaccharide substrate (2 μM) and normalised to DMSO (4% v/v) or buffer control. Data shown is mean and SD of 4 repeat experiments. (B) Full dose–response curves for selected compounds. […] HS2ST activity calculated as previously described. Data from two independent experiments are combined. (C) Enzymatic analysis of TPST1 inhibition by a panel of PAP- and PAPS-mimetic compounds. […] TPST1 activity was measured using fluorescently-labelled CC4-tide (2 μM) and normalised to DMSO (4% v/v) or buffer control. (D) Full dose–response curves for selected compounds. […] TPST1 activity was measured using CC4-tide and normalised to DMSO or buffer controls as previously described. The data shown is from duplicate experiments. […]
TPST1 peptide substrate (CC4-tide, 5-FAM-EDFED YEFDG-CONH2) was synthesised using solid-phase Fmoc chemistry (Pepceuticals, Leicester, UK). All standard laboratory biochemicals, were purchased from Sigma, and were of the highest analytical quality.
as §1, §2, §3
Microfluidics-Based Sulfation Assay
Non-radioactive microfluidic mobility shift peptide and carbohydrate sulfation assays were performed in solution with a 12-sipper chip coated with SR8 reagent and a Perkin Elmer EZ Reader II system 8 using an EDTA-based separation buffer and real-time kinetic evaluation of substrate sulfation. Pressure and voltage settings were adjusted manually to afford optimal separation of the sulfated product and non-sulfated substrate, with a sample (sip) volume of 20 nL, and total assay tim es appropriate for the experiment. The fluorophore tagged TPST1 peptide substrate and HS2ST1 glycan substrate where detected by the EZ Reader via LED-induced fluorescence.
Individual sulfation assays were assembled in a 384 well plate in a volume of 80 µL in the presence of […]
and 5 mM MgCl2. The degree of substrate sulfation was directly calculated using EZ Reader software by measuring the sulfo-product:non-sulfated substrate ratio at each time-point. The act ivity of the sulfotransferase enzymes in the presence of biochemicals and small molecule inhibitors was quantified in ‘kinetic mode’ by monitoring the amount of sulfated product generated over the assay time, relative to control assay with no additional inhibitor molecule (DMSO or buffer control). Data was normalized with respect to these control assays, with sulfate incorporation into the substr ate limited to ~ 20% to prevent depletion of PAPS and to ensure assay linearity. K m and IC50 values were determined by non-linear regression analysis with GraphPad Prism software. […]

Row | SMILES | suppression of tyrosine sulfation (immunoblot) (TPST1 [1]) | IC50 (TPST1 [2]) | inhibitory activity against TPST1 (TPST1 [2]; compound 400 μM, TPST1 0.1 μM, PAPS 5 μM)
1 | Nc1ncnc2c1ncn2[C@H]1C[C@H](OP(=O)(O)O)[C@@H](COP(=O)(O)O)O1 [2′-deoxy-PAP] | complete suppression | 3.6 µM | 
2 | Nc1ncnc2c1ncn2[C@H]1C[C@H](O)[C@@H](Cn2cc(P(=O)(O)OCc3ccccc3)nn2)O1 [Compound 13] | partial suppression | 100 to 300 µM | 
3 | Nc1ncnc2c1ncn2[C@H]1C[C@H](OP(=O)(O)O)[C@@H](Cn2cc(P(=O)(O)O)nn2)O1 [Compound 12] | partial suppression | 100 to 300 µM | 
4 | Nc1ncnc2c1ncn2[C@H]1C[C@H](O)[C@@H](Cn2cc(P(=O)(O)O)nn2)O1 [Compound 11] | inactive |  | inactive
